According to PMC3894558, “Chemical signatures and new drug targets for gametocytocidal drug development” (Scientific Reports, 2014):
Read-outs that look alike come from different tables or passages of the source.

System: P. falciparum 3D7 gametocytes
Assay: alamarBlue gametocyte viability assay, strain 3D7
Format: cell-based, Plasmodium falciparum
Conditions: Malaria Box; for Max Resp: DMSO set at 0%, 100 nM epoxomicin set at -100%; for Curve Class / IC50: stages III-V 3D7 gametocytes; for IC50: 11 concentrations, 1:3 dilution; call rule not given here

## O=C(O)C(=O)O.Oc1ccccc1CN1CCN(C(c2ccccc2)c2ccccc2)CC1 [MMV011795]
  Max Resp: -53%
  Curve Class: -2.2
read-out: IC50
  IC50: 5.9 µM

## O=c1nc(C=Cc2ccc(Cl)cc2)oc2ccccc12 [MMV007977]
  Max Resp: 25%
  Curve Class: 4
  IC50: Inactive

## COc1ccc(-c2cc3c(SCC(=O)Nc4cc(C(F)(F)F)ccc4Cl)nccn3n2)cc1 [MMV396679]
  Max Resp: 0%
  Curve Class: 4
  IC50: Inactive

## COCCNCC(O)Cn1c2ccc(Cl)cc2c2cc(Cl)ccc21 (stereo not drawn) [MMV019017]
  Max Resp: -94%
  Curve Class: -1.1
read-out: IC50
  IC50: 2.64 µM

## CCOc1ccc(-n2cc(-c3ccccc3)c3c(SCc4cc(C)ccc4C)ncnc32)cc1 [MMV085471]
  Max Resp: 1%
  Curve Class: 4
  IC50: Inactive

## Cc1cccc(-n2ncc3c(O)nc(-n4nc(C)cc4NC(=O)c4cc5ccccc5o4)nc32)c1 [MMV403679]
  Max Resp: -64%
  Curve Class: -2.2
read-out: IC50
  IC50: 18.7 µM

## COc1ccccc1CNC(=O)CCn1c(=O)[nH]c2ccccc2c1=O [MMV665916]
  Max Resp: -1%
  Curve Class: 4
  IC50: Inactive

## O=C1c2ccccc2-c2nnc(-c3ccc(Br)cc3)cc21 [MMV665934]
  Max Resp: 17%
  Curve Class: 4
  IC50: Inactive

## COCCNC(=O)c1ccc(OC2CCN(Cc3ccc(F)c(F)c3)CC2)c(Cl)c1 [MMV666072]
  Max Resp: 12%
  Curve Class: 4
  IC50: Inactive

## O=c1nc(C=Cc2ccc(Br)cc2)oc2ccccc12 [MMV666599]
  Max Resp: 4%
  Curve Class: 4
  IC50: Inactive

## COc1cc(C(=O)ON=C(N)Cc2cccc3ccccc23)cc(OC)c1OC [MMV666687]
  Max Resp: -100%
  Curve Class: -2.1
read-out: IC50
  IC50: 14.8 µM

## COc1cc2c3cc1Oc1c(OC)c(OC)cc4c1C(Cc1ccc(O)c(c1)Oc1ccc(cc1)CC3N(C)CC2)N(C)CC4.Cl (stereo not drawn) [MMV007474]
  Max Resp: -93%
  Curve Class: -1.1
read-out: IC50
  IC50: 5.9 µM

## O=C(c1ccccc1F)N(Cc1ccc(Cl)cc1)c1ccccn1 [MMV665899]
  Max Resp: -26%
  Curve Class: 4
  IC50: Inactive

## CCC(=O)Nc1nnc(Cc2ccc(OC)c(OC)c2)s1 [MMV020942]
  Max Resp: -19%
  Curve Class: 4
  IC50: Inactive

## COc1ccc(C(O)(CCC(C)C)C(CN2CCOCC2)c2ccc(Cl)cc2)cc1.Cl (stereo not drawn) [MMV000617]
  Max Resp: -31%
  Curve Class: -2.4
  IC50: Inactive

## CCOC(=O)c1cnc2c(C)cccc2c1Nc1ccc(C(C)=O)cc1 [MMV006250]
  Max Resp: 3%
  Curve Class: 4
  IC50: Inactive

## Oc1ccc(C(=C(Cl)Cl)c2ccc(O)cc2)cc1 [MMV665949]
  Max Resp: -40%
  Curve Class: -1.2
read-out: IC50
  IC50: 9.35 µM

## CCC(C)NCC(O)(c1ccc(Cl)cc1)c1ccc(Cl)cc1 (stereo not drawn) [MMV665928]
  Max Resp: -78%
  Curve Class: -2.2
read-out: IC50
  IC50: 5.9 µM

## COCCN(C(=O)Cc1cccs1)C(C(=O)NCc1ccc(OC)cc1)c1ccc(C(C)C)cc1 (stereo not drawn) [MMV666105]
  Max Resp: -42%
  Curve Class: -2.2
  IC50: Inactive

## FC(F)(F)c1cccc(CNC2CCN(CCc3ccccc3)CC2)c1 [MMV665979]
  Max Resp: -89%
  Curve Class: -2.1
read-out: IC50
  IC50: 14.8 µM

## O=C(NC(c1ccccc1)c1ccc2cccnc2c1O)c1ccccc1 (stereo not drawn) [MMV666080]
  Max Resp: -75%
  Curve Class: -2.2
read-out: IC50
  IC50: 9.35 µM

## O=C(CCc1ccco1)NC1CCN(CC2(c3ccc(Cl)cc3)CCC2)CC1 [MMV666108]
  Max Resp: -51%
  Curve Class: -2.2
  IC50: Inactive

## COc1ccc(C2c3ccc4ccccc4c3Oc3ncn(CCCN(C)C)c(=N)c32)cc1 (stereo not drawn) [MMV667491]
  Max Resp: -95%
  Curve Class: -1.1
read-out: IC50
  IC50: 2.64 µM

## CC(C)CCNCC(O)Cn1c2ccccc2c2ccccc21.Cl (stereo not drawn) [MMV006787]
  Max Resp: -94%
  Curve Class: -1.1
read-out: IC50
  IC50: 2.64 µM

## COc1ccc(CCN2C(=O)c3[nH]nc(-c4cc(Cl)c(C)cc4O)c3C2c2ccccc2F)cc1 (stereo not drawn) [MMV396717]
  Max Resp: -70%
  Curve Class: -2.2
read-out: IC50
  IC50: 23.5 µM

## C[n+]1c2ccccc2nc2ccc(NCCO)cc21 [MMV396693]
  Max Resp: -85%
  Curve Class: -1.1
read-out: IC50
  IC50: 2.96 µM

## Cc1cc(C)c2nc(N3CCC(C(=O)NCCCN4CCC(N5CCCCC5)CC4)CC3)sc2c1 [MMV019780]
  Max Resp: -106%
  Curve Class: -1.1
read-out: IC50
  IC50: 4.18 µM

## COc1cc(C(=O)Nc2nc3c(cc4c5c(cccc53)CC4)s2)cc(OC)c1OC [MMV396665]
  Max Resp: -24%
  Curve Class: 4
  IC50: Inactive

## CC(C)=CCN1CCC(C(=O)Nc2ccc(-c3nc4ccccc4[nH]3)cc2)CC1 [MMV665946]
  Max Resp: -77%
  Curve Class: -2.2
read-out: IC50
  IC50: 14.8 µM

## O=C(Nc1ccc(C23CC4CC(CC(c5ccccc5)(C4)C2)C3)cc1)c1cccs1 [MMV007574]
  Max Resp: 12%
  Curve Class: 4
  IC50: Inactive

## Cn1c(=O)c2cc(C(=O)NCCCN3CCCCCC3)sc2c2ccccc21 [MMV019313]
  Max Resp: -46%
  Curve Class: -2.2
  IC50: Inactive

## CC(Oc1ccc(NC(=O)c2cccs2)cc1)C(=O)c1ccc(Cl)cc1 (stereo not drawn) [MMV665886]
  Max Resp: 44%
  Curve Class: 2.2
read-out: IC50
  IC50: 18.7 µM

## CC(C)(C)CC(C)(C)NCC(O)COc1ccc(Cl)cc1Cl (stereo not drawn) [MMV396794]
  Max Resp: -106%
  Curve Class: -1.1
read-out: IC50
  IC50: 2.96 µM

## CCCCc1c(C)nc2c(OC)cccc2c1O [MMV006820]
  Max Resp: 24%
  Curve Class: 4
  IC50: Inactive

## CCc1c(C)c(=N)c2ccccc2n1C.I [MMV006278]
  Max Resp: -52%
  Curve Class: -2.2
  IC50: Inactive

## OC(CNCC1CCCO1)Cn1c2ccc(Cl)cc2c2cc(Cl)ccc21 (stereo not drawn) [MMV396736]
  Max Resp: -70%
  Curve Class: -2.2
read-out: IC50
  IC50: 23.5 µM

## O=C(Nc1ccccc1O)c1ccc(Oc2cccc(C(=O)Nc3ccccc3O)c2)cc1 [MMV665888]
  Max Resp: -76%
  Curve Class: -2.2
read-out: IC50
  IC50: 14.8 µM

## CCCCCn1c(=N)n(CC(O)COc2cccc(C)c2)c2ccccc21.Cl (stereo not drawn) [MMV000444]
  Max Resp: -107%
  Curve Class: -1.1
read-out: IC50
  IC50: 8.33 µM

## COc1ccc(CCn2c(=N)c(C(=O)NCc3cccnc3)cc3c(=O)n4cccc(C)c4nc32)cc1 [MMV667488]
  Max Resp: -32%
  Curve Class: -1.2
read-out: IC50
  IC50: 2.64 µM

## Br.Cc1ccc(C)c(-c2csc(Nc3ccc(C)c(C)c3)n2)c1 [MMV007654]
  Max Resp: -3%
  Curve Class: 4
  IC50: Inactive

## O=C(NCC1Cc2cccc(-c3ccncc3)c2O1)c1csc2c1CCCC2 (stereo not drawn) [MMV665954]
  Max Resp: 5%
  Curve Class: 4
  IC50: Inactive

## Cc1cc(N(C)C)nc(Nc2ccc(NC(=O)Nc3ccccc3)cc2)n1 [MMV020243]
  Max Resp: -73%
  Curve Class: -2.2
read-out: IC50
  IC50: 11.8 µM

## Cc1sc(NC(=O)c2ccco2)c(C(c2cccnc2)N2CCC(Cc3ccccc3)CC2)c1C (stereo not drawn) [MMV396663]
  Max Resp: -85%
  Curve Class: -2.1
read-out: IC50
  IC50: 16.6 µM

## O=C(Nc1cccc(-c2nc3ccccc3[nH]2)c1)c1cccc(NC(=O)c2ccco2)c1 [MMV665883]
  Max Resp: -25%
  Curve Class: 4
  IC50: Inactive

## COc1ccc(C=C2SC(=N)N(c3ccccc3OC)C2=O)cc1 [MMV666691]
  Max Resp: -7%
  Curve Class: 4
  IC50: Inactive

## CCc1ccc(Nc2cc(C)c3ccc(O)cc3n2)cc1.Cl [MMV000570]
  Max Resp: -29%
  Curve Class: -1.2
read-out: IC50
  IC50: 0.469 µM

## COc1ccc(NC(=O)C2c3ccccc3C(=O)N(CC(C)C)C2c2cccs2)cc1Cl (stereo not drawn) [MMV000642]
  Max Resp: -75%
  Curve Class: -2.2
read-out: IC50
  IC50: 9.35 µM

## Cc1cc(Nc2ccc3ccccc3c2)n2ncnc2n1 [MMV011099]
  Max Resp: -5%
  Curve Class: 4
  IC50: Inactive

## CC1CCN(Cc2ccc(NC(=O)c3cc4ccc5cccnc5c4[nH]3)cc2)CC1 [MMV020549]
  Max Resp: -75%
  Curve Class: -2.2
read-out: IC50
  IC50: 14.8 µM

## COc1ccccc1N1C(=N)SC(=Cc2ccc(OCc3ccccc3F)cc2)C1=O [MMV007199]
  Max Resp: -2%
  Curve Class: 4
  IC50: Inactive

## CCOc1ccc(C2N(C)c3ccccc3N2C)cc1 [MMV075490]
  Max Resp: -38%
  Curve Class: -2.2
  IC50: Inactive

## CN(C)c1ccc(N=Cc2ccc(N3CCOCC3)cc2)cc1 [MMV073843]
  Max Resp: -98%
  Curve Class: -1.1
read-out: IC50
  IC50: 2.35 µM

## Cc1ccc2nc(C)cc(Nc3cccc(C(F)(F)F)c3)c2c1.Cl [MMV000326]
  Max Resp: -52%
  Curve Class: -2.2
  IC50: Inactive

## O=c1c2c([nH]c3ccccc13)CCCC2 [MMV665843]
  Max Resp: -7%
  Curve Class: 4
  IC50: Inactive

## COc1ccc(-n2ccnc2SCC(=O)Nc2cc(C)ccc2C)c(OC)c1 [MMV019258]
  Max Resp: -8%
  Curve Class: 4
  IC50: Inactive

## Cc1c(C)n(CC(O)CNC2CCCCC2C)c2ccccc12 (stereo not drawn) [MMV665806]
  Max Resp: -89%
  Curve Class: -1.1
read-out: IC50
  IC50: 3.32 µM

## CCOC(=O)C1(Cc2ccccc2)CCN(Cc2cccc(OC)c2O)CC1 [MMV666109]
  Max Resp: -58%
  Curve Class: -1.2
read-out: IC50
  IC50: 5.26 µM

## COc1ccc2sc(N(Cc3cccnc3)C(=O)c3ccc(C#N)cc3)nc2c1 [MMV001239]
  Max Resp: -40%
  Curve Class: -2.2
  IC50: Inactive
